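Briefly, cells in 96-well plates were exposed to five compound concentrations for 48 h, and endpoints were estimated by linear interpolation. GI50 = concentration required for 50% inhibition of growth.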 Activity calls are given as the source filed them. Rule as the data show it: active = GI50 up to about 1.1 µM and inactive = higher.

The source of these data is ChEMBL document CHEMBL1201862, “PubChem BioAssay data set” (2004).

Among the test systems are SF-539; SK-OV-3; RPMI-8226; NCI-H23; HCT-116; ACHN; NCI-H522; M14; U-251; OVCAR-3; UACC-257; SW-620; KM12; COLO 205; Malme-3M; SNB-19; HOP-92; OVCAR-8; CCRF-CEM; UACC-62.
Test in all cases: NCI anticancer screen, dose series, 48 h

With `COc1cccc2c1C(=O)c1c(O)c3c(c(O)c1C2=O)C[C@@](O)(C(=O)CO)C[C@@H]3OC1CC(N2CCOCC2)C(O)C(C)O1` (some centres not stated), the GI50 in the assay on SF-539 was 0.0025 µM (active); in the assay on SK-OV-3 it was 0.00292 µM (active); in the assay on RPMI-8226 it was 0.0025 µM (active); with NCI-H23 it was 0.00567 µM (active); with HCT-116, 0.0025 µM (active); in the assay on ACHN, 0.00513 µM (active). The GI50 was 0.0025 µM (active) in the assay on NCI-H522; 0.0324 µM (active) with M14; 0.0025 µM (active) with U-251; 0.0025 µM (active) with OVCAR-3; 0.00267 µM (active) in the assay with UACC-257; 0.00791 µM (active) with SW-620. Also, the GI50 in the assay with KM12 is 0.0246 µM (active); in the assay on COLO 205, 0.00325 µM (active); with Malme-3M, 0.00259 µM (active); in the assay with SNB-19, 0.0025 µM (active); in the assay on HOP-92, 0.00975 µM (active); in the assay on OVCAR-8, 0.0025 µM (active). Moreover, the GI50 in the assay on CCRF-CEM was 0.00323 µM (active).
For the molecule `CC(=O)OC1CC2(O)C(CCC3(C)C(c4ccc(=O)oc4)CCC32O)C2(C)C1=CC(O)C1OC12` (configuration not stated), the GI50 in the assay on SF-539 is 0.0375 µM (active); in the assay on SK-OV-3, 0.0843 µM (active); in the assay on RPMI-8226, 0.0675 µM (active); with NCI-H23, 0.0275 µM (active); in the assay with HCT-116 it was 0.0296 µM (active); in the assay on NCI-H522, 0.025 µM (active). The GI50 is 0.0762 µM (active) in the assay with U-251; 0.0316 µM (active) in the assay with OVCAR-3; 0.0441 µM (active) with UACC-257; 0.0457 µM (active) in the assay with UACC-62; 0.0387 µM (active) in the assay on SW-620; 0.067 µM (active) in the assay with KM12. The GI50 in the assay on COLO 205 is 0.0726 µM (active); in the assay on Malme-3M, 0.0419 µM (active); with SNB-19, 0.118 µM (active); with HOP-92, 0.0538 µM (active); in the assay on OVCAR-8, 0.0349 µM (active); in the assay with CCRF-CEM, 0.0267 µM (active).
Take `CC1Oc2c(c(O)cc3oc(=O)cc(-c4ccccc4)c23)C(=O)C1C` (configuration not stated): the GI50 in the assay on SF-539, with SK-OV-3, in the assay with RPMI-8226, in the assay with NCI-H23, with ACHN and with NCI-H522 was > 100 µM (inactive) each time. Moreover, the GI50 with M14, in the assay with U-251, in the assay on OVCAR-3, in the assay on UACC-62, with SW-620 and in the assay with COLO 205 was > 100 µM (inactive) in each case. Also, the GI50 in the assay with Malme-3M, with HOP-92, in the assay on OVCAR-8 and with CCRF-CEM was > 100 µM (inactive) in each case.
In the case of `COc1cccc(C2C(C(=O)O)=C(CO)Oc3cc4c(cc32)OCO4)c1OC` (configuration not stated), the GI50 in the assay with SF-539, with SK-OV-3, in the assay on RPMI-8226, in the assay with NCI-H23, with ACHN and with NCI-H522 was > 100 µM (inactive) in each case. The GI50 in the assay with M14, in the assay with U-251, in the assay on OVCAR-3, with UACC-62, in the assay on SW-620 and in the assay with COLO 205 was > 100 µM (inactive) each time. Besides, the GI50 is > 100 µM (inactive) in the assay with Malme-3M; > 100 µM (inactive) with SNB-19; 97.7 µM (inactive) in the assay with HOP-92; > 100 µM (inactive) in the assay on OVCAR-8; > 100 µM (inactive) in the assay on CCRF-CEM.
As to `CCOC(=O)Cn1c(=O)c2cc(C)cc3c(Cl)nc4c(OC)c(OC)cc1c4c32`, the GI50 was > 100 µM (inactive) in the assay with SF-539; > 100 µM (inactive) in the assay with SK-OV-3; 36.5 µM (inactive) in the assay with RPMI-8226; > 100 µM (inactive) in the assay with NCI-H23; > 100 µM (inactive) with HCT-116; > 100 µM (inactive) in the assay with ACHN. In addition, the GI50 in the assay on NCI-H522, with M14, with U-251, with OVCAR-3, in the assay with UACC-257 and in the assay with UACC-62 was > 100 µM (inactive) throughout. Also, the GI50 is > 100 µM (inactive) in the assay with SW-620; > 100 µM (inactive) in the assay on KM12; > 100 µM (inactive) in the assay on COLO 205; 44.2 µM (inactive) in the assay with Malme-3M; > 100 µM (inactive) in the assay with SNB-19; 41.5 µM (inactive) with HOP-92. Also, the GI50 with OVCAR-8 and in the assay with CCRF-CEM was > 100 µM (inactive) in each case.
For `CN1c2ccccc2C(=O)NC12CCN(CCCC(=O)c1ccc(F)cc1)CC2`, the GI50 in the assay on SF-539 is 50.6 µM (inactive); in the assay on SK-OV-3 it was > 100 µM (inactive); in the assay with RPMI-8226 it was 33.1 µM (inactive); in the assay on NCI-H23, > 100 µM (inactive); in the assay on HCT-116, 44.7 µM (inactive); in the assay on ACHN it was > 100 µM (inactive). Moreover, the GI50 in the assay on NCI-H522 was 26.7 µM (inactive); with M14, 15.5 µM (inactive); in the assay with U-251 it was > 100 µM (inactive); in the assay on OVCAR-3, 48.9 µM (inactive); in the assay with UACC-257 it was 29 µM (inactive); with UACC-62, > 100 µM (inactive). For the same molecule, the GI50 was 50.4 µM (inactive) with SW-620; > 100 µM (inactive) in the assay with KM12; 16.3 µM (inactive) in the assay with COLO 205; 27.7 µM (inactive) in the assay with Malme-3M; 62.1 µM (inactive) with HOP-92; > 100 µM (inactive) in the assay on OVCAR-8. In addition, in the assay on CCRF-CEM, the GI50 is 84.7 µM (inactive).
As to `CN(C)CCNC(=O)c1cc(Cl)cc2ccc(-c3ccccc3)nc12`, the GI50 was 3.09 µM (inactive) in the assay on SF-539; 3.13 µM (inactive) with SK-OV-3; 1.85 µM (inactive) in the assay with RPMI-8226; 3.96 µM (inactive) in the assay on NCI-H23; 2.18 µM (inactive) with HCT-116; 5.37 µM (inactive) in the assay on NCI-H522. Moreover, the GI50 in the assay on U-251 is 4.32 µM (inactive); in the assay on OVCAR-3, 3.74 µM (inactive); in the assay on UACC-257 it was 2.92 µM (inactive); with UACC-62, 2.45 µM (inactive); with SW-620, 2.32 µM (inactive); with KM12, 4.84 µM (inactive). Besides, the GI50 in the assay on COLO 205 was 1.6 µM (inactive); in the assay on Malme-3M it was 3.63 µM (inactive); in the assay with SNB-19, 5.04 µM (inactive); in the assay on HOP-92, 2.82 µM (inactive); in the assay on OVCAR-8 it was 2.92 µM (inactive); with CCRF-CEM, 1.49 µM (inactive).
Regarding `O=P1(c2ccccc2)Nc2ccccc2SSc2ccccc2N1`, the GI50 in the assay with SF-539 is 19.9 µM (inactive); in the assay on SK-OV-3, 25.5 µM (inactive); with RPMI-8226, 18.3 µM (inactive); in the assay with NCI-H23, 16.6 µM (inactive); in the assay on HCT-116, 16.8 µM (inactive); with NCI-H522, 15.1 µM (inactive). For the same molecule, the GI50 with U-251 is 16.7 µM (inactive); with OVCAR-3, 15.1 µM (inactive); in the assay on UACC-257 it was 15.8 µM (inactive); with UACC-62 it was 15.6 µM (inactive); in the assay on SW-620, 16.7 µM (inactive); in the assay with KM12, 16.7 µM (inactive). Besides, the GI50 with COLO 205 was 20 µM (inactive); with Malme-3M, 18.4 µM (inactive); in the assay on SNB-19, 16.3 µM (inactive); in the assay with HOP-92, 15.4 µM (inactive); with OVCAR-8, 18.2 µM (inactive); in the assay on CCRF-CEM, 12.1 µM (inactive).
For the molecule `CC1CCC2N(C1)CC1C3(O)CC45OC6(O)C(O)CCC4(C)C6CCC5C3(O)CC(O)C1(O)C2(C)O` (configuration not stated), the GI50 in the assay on SF-539, in the assay on SK-OV-3, in the assay on RPMI-8226, with NCI-H23, in the assay with HCT-116 and in the assay with ACHN was > 100 µM (inactive) each time. Besides, the GI50 in the assay on NCI-H522, in the assay with M14, in the assay with U-251, in the assay on OVCAR-3, in the assay on UACC-257 and in the assay on UACC-62 was > 100 µM (inactive) throughout. Besides, the GI50 with SW-620, in the assay on KM12, in the assay with COLO 205, with Malme-3M, with SNB-19 and with HOP-92 was > 100 µM (inactive) each time. For the same molecule, the GI50 in the assay on OVCAR-8 and in the assay on CCRF-CEM was > 100 µM (inactive) each time.
Take `COc1cc(CCCOC2OC(COC3OCC(O)C(O)C3O)C(O)C(O)C2O)cc2cc(-c3ccc4c(c3)OCO4)oc12` (configuration not stated): the GI50 in the assay with SF-539, in the assay with SK-OV-3, in the assay with RPMI-8226, in the assay on NCI-H23, in the assay with HCT-116 and in the assay with NCI-H522 was > 175 µM (inactive) in each case. Further, the GI50 with U-251, in the assay with OVCAR-3, in the assay on UACC-257, in the assay on UACC-62, in the assay on SW-620 and with KM12 was > 175 µM (inactive) throughout. Further, the GI50 in the assay on COLO 205 was > 175 µM (inactive); in the assay with Malme-3M, > 175 µM (inactive); with SNB-19, > 175 µM (inactive); in the assay on HOP-92, > 175 µM (inactive); with OVCAR-8, 94.6 µM (inactive); in the assay on CCRF-CEM, > 69.7 µM (inactive).
Take `Cc1ccc(S(=O)(=O)N(CC(=O)O)c2ccccc2)cc1`: the GI50 in the assay on SF-539, with SK-OV-3, in the assay on RPMI-8226, with NCI-H23, in the assay on ACHN and with NCI-H522 was > 100 µM (inactive) each time. Further, the GI50 with M14, with U-251, in the assay on OVCAR-3, in the assay with UACC-257, with UACC-62 and with SW-620 was > 100 µM (inactive) in each case. The GI50 in the assay with KM12, in the assay on COLO 205, with Malme-3M, in the assay with SNB-19, in the assay on HOP-92 and in the assay with OVCAR-8 was > 100 µM (inactive) each time. Moreover, the GI50 with CCRF-CEM was > 100 µM (inactive).
